Data taken from ChEMBL document CHEMBL3861964, “Bioassay-Guided Isolation of Prenylated Xanthone Derivatives from the Leaves of Garcinia oligantha” (J Nat Prod, 2016).

Assays:
[1] = Cytotoxicity against human HL-7702 cells assessed as reduction in cell viability after 72 hrs by MTT assay; assay type: toxicity, cell-based, L02
[2] = Cytotoxicity against human PC3 cells assessed as reduction in cell viability after 72 hrs by MTT assay; assay type: functional, cell-based; conditions: PC-3, 72 h
cells = conditions: Homo sapiens, HT-29, 72 h
Description: Cytotoxicity against human HT-29 cells assessed as reduction in cell viability after 72 hrs by MTT assay

[3] = Cytotoxicity against human A549 cells assessed as reduction in cell viability after 72 hrs by MTT assay; assay type: functional, cell-based; conditions: A549, 72 h
[4] = Cytotoxicity against human HepG2 cells assessed as reduction in cell viability after 72 hrs by MTT assay; assay type: functional, cell-based; conditions: HepG2, 72 h

Compound	IC50 at 72 h [1]	IC50 [2]	IC50 (cells)	IC50 [3]	IC50 [4]
CO[C@]12C=C3C(=O)c4c(O)c(CC=C(C)C)c(O)c(CC=C(C)C)c4O[C@]34C(C1)C(C)(C)O[C@]4(CC=C(C)C)C2=O	3.1 µM	2.3 µM	2.3 µM	2.9 µM	2.9 µM
C=C(C)[C@H]1C[C@](C/C=C(\C)CCC=C(C)C)(C(=O)O)c2c(oc3c(CC=C(C)C)c(O)cc(O)c3c2=O)[C@@H]1O	–	> 10 µM	> 10 µM	> 10 µM	> 10 µM
CC(C)=CCC1=C(O)C(=O)C(CC=C(C)C)(CC=C(C)C)c2c1oc1cc(O)cc(O)c1c2=O	–	> 10 µM	> 10 µM	> 10 µM	> 10 µM
CC(C)=CCC1(CC=C(C)C)C(=O)C(O)=C(O)c2oc3c4c(cc(O)c3c(=O)c21)OC(C)(C)C=C4	6.4 µM	3.2 µM	4.1 µM	5.5 µM	6.2 µM
CC(C)=CCC/C(C)=C/C[C@]1(C(=O)O)CC(=C(C)C)C(=O)c2oc3c(CC=C(C)C)c(O)cc(O)c3c(=O)c21	–	> 10 µM	> 10 µM	> 10 µM	> 10 µM
CC(C)=CCc1cc(C(C)C)c(O)c2oc3c4c(cc(O)c3c(=O)c12)OC(C)(C)C=C4	–	> 10 µM	> 10 µM	> 10 µM	> 10 µM
CC(C)=CCC/C(C)=C/C[C@@]1(CC=C(C)C)C(=O)C(O)=C(O)c2oc3c4c(cc(O)c3c(=O)c21)OC(C)(C)C=C4	> 10 µM	5.9 µM	6.4 µM	5 µM	> 10 µM
CO[C@]12C=C3C(=O)c4c(O)cc(O)c(CC=C(C)C)c4O[C@]34C(C1)C(C)(C)O[C@]4(CC=C(C)C)C2=O	2.5 µM	2.1 µM	2.2 µM	3 µM	2.8 µM
CC(C)=CCc1c(O)cc(O)c2c(=O)c3c(oc12)C(CC=C(C)C)(CC=C(C)C)C(=O)C(O)=C3	–	> 10 µM	> 10 µM	> 10 µM	> 10 µM
CC(C)=CCc1c(O)c(O)c(O)c2oc3c4c(cc(O)c3c(=O)c12)OC(C)(C)C=C4	–	> 10 µM	> 10 µM	> 10 µM	> 10 µM
CO[C@@]12C=C3C(=O)c4c(O)cc5c(c4O[C@@]34[C@@H]1C(C)(C)O[C@@]4(CC=C(C)C)C2=O)C=CC(C)(C)O5	8.6 µM	4.6 µM	4.8 µM	3.9 µM	4.5 µM
CC(C)=CCC1(C(=O)O)CC(=C(C)C)C(=O)c2oc3c4c(cc(O)c3c(=O)c21)OC(C)(C)C=C4 (racemic)	–	> 10 µM	> 10 µM	> 10 µM	> 10 µM
CC(=O)O[C@H]1C(=O)[C@@]2(C)[C@H]([C@H](OC(=O)c3ccccc3)[C@]3(O)C[C@H](OC(=O)[C@H](O)[C@@H](NC(=O)c4ccccc4)c4ccccc4)C(C)=C1C3(C)C)[C@]1(OC(C)=O)CO[C@@H]1C[C@@H]2O [PACLITAXEL]	0.06 µM	0.03 µM	–	0.08 µM	0.2 µM
